Experimental findings from patent US20260174875A1 (Novo Nordisk A/S, priority 2023, published 2026) are described below.

Read-outs that look alike come from different tables or passages of the source. Numbered stars: 1 amine (or outer) side, 2 acyl side, 3 side chain; on linkers, the order of the positions; unused ones are H or OH. Square brackets hold non-standard residues; d marks the D form. Side chains are listed from the residue outwards. * marks the point of attachment. C20 diacid = O=C(O)CCCCCCCCCCCCCCCCCCC(=O)*; γGlu = O=C(O)[C@H](CCC(=O)[*:2])N[*:1]; AEEA = NCCOCCOCC(=O)O; Aib = CC(C)(N)C(=O)O

Data set [1] in a line: Chemical stability assessment in formulation (UPLC-UV-MS purity loss at 37° C.). It counts as physicochemical. The conditions noted are these: 8 mM phosphate buffer pH 7.4, 1 mg/mL, 2 weeks. The essentials: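 Peptides at target 1 mg/mL in 8 mM phosphate buffer, pH adjusted to 7.4, incubated in capped vials at 37° C. and sampled over 2 weeks, frozen until analysis. Purity followed by UPLC-UV-MS with a 0.1% formic acid water/acetonitrile gradient.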

Data set [2] in a line: Pharmacokinetic study in minipigs (i.v.). The following applies: female, Göttingen, minipig, plasma, iv; i.v. administration to minipigs, 2 nmol/kg; read-out: Terminal half-life t1/2 (converted). In kind it is in vivo, Göttingen minipigs. How it is done: This is done in a pharmacokinetic (PK) study, where the terminal half-life (t1/2) of the compound or derivative in question is determined. By terminal half-life is meant the time it takes to halve a certain plasma concentration in the terminal elimination phase.
Female Göttingen minipigs, obtained from Ellegaard Göttingen Minipigs (Dalmose, Denmark), approximately 8-12 months of age and weighing approximately 20-30 kg were used in the studies.
After three weeks of acclimatisation two permanent central venous catheters were implanted in vena cava caudalis in each animal. The animals were allowed at least 10 days recovery after the surgery and were then used for repeated pharmacokinetic studies with a suitable wash-out period between successive dosing.
The compounds of the invention were formulated (40 nmol/ml) in the following vehicle: 8 mM phosphate; 250 mM glycerol; 0.007% polysorbate 20, pH 7.4.
Blood samples (for example 1.3 ml) were collected in EDTA (1.3 ml tube containing K3EDTA to yield 1.6 mg K3EDTA/ml blood) coated tubes and then centrifuged at 4° C. and 2000×g for 10 minutes.
Plasma was within 30 min after centrifugation pipetted into Micronic tubes stored on dry ice and were afterwards kept at −20° C. until analysed for plasma concentration of the compounds using LCMS.
Plasma concentrations of the peptides of the invention were assayed by plasma protein precipitation and analysed by liquid chromatography mass spectrometry (LC-MS). Calibrators were prepared by spiking blank plasma from minipigs with the compounds in the typical range from 0.05 to 200 nM. […] The supernatant was diluted with 1 volumes of Milli-Q water containing 1% Formic acid before injection on the LC-MS system. Individual plasma concentration-time profiles were analysed by a non-compartmental pharmacokinetic method (NCA) in Phoenix v. 6.4 (Pharsight Inc., Mountain View, CA, USA), and the resulting terminal half-lives (harmonic mean) determined. The LC-MS analysis was carried out using a TurboFlow HPLC system from Thermo Fisher Scientific (Bremen, Germany) coupled to either a Q Exactive Orbitrap or Altis Triple Quadrupole (TQ) Mass Spectrometer. […] The Orbitrap mass spectrometer were operating in positive ionization mode with a spray voltage of 4.0 kV using Parallel Reaction Monitoring scan mode using 5 m/z isolation windows on the most abundant charge state of the compounds with a resolution of 35K on the Orbitrap MS.
The data was processed using the Quan Browser in the Xcalibur software from Thermo Fisher Scientific (Bremen, Germany) by fitted the data to linear calibration curves (weighed 1/x^2), used for calculating the concentration in the plasma samples. Quality control samples were included.

In data set [3] the target is T1, human GIP receptor (hGIPR) (Homo sapiens, UniProt P48546).
T1 construct: expressed in transfected cells
T1 sequence (P48546 22-466): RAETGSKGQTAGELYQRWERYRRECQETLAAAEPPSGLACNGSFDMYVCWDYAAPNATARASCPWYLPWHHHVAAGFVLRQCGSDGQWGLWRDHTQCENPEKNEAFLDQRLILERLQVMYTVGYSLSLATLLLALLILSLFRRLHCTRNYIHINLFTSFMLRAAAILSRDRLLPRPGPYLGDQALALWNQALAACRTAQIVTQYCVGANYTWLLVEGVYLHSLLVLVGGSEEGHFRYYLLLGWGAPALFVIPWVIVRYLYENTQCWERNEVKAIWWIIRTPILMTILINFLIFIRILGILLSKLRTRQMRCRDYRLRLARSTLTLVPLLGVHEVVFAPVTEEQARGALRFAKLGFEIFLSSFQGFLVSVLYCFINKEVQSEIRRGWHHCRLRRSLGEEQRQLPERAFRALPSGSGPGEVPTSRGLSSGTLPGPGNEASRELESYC
The experiment in a line: GIP receptor assay, method B (CRE-luciferase reporter, BHK cells, 384-well). In kind it is cell-based.
Experimental: To assess how the activation of the receptors is potentially influenced by the presence of human serum albumin (HSA), the in vitro assays were performed in the absence of HSA and presence of 1% (w/v) HSA.
Activation of the human GIP receptor leads to increased intra-cellular concentrations of cyclic AMP (cAMP) and the consequent transcription activation from promoters containing multiple copies of the cAMP response element (CRE). It is thus possible to measure GIP receptor activity using a CRE-luciferase reporter gene introduced into Baby Hamster Kidney (BHK) cells co-expressing the human GIP receptor.
Cells at about 80-90% confluency were washed once with PBS (Gibco 14190-094) and detached from the cell flasks with Versene (Gibco, 15040-066). After centrifugation, the cells were counted, resuspended and diluted to approximately 1.5-3.0×10^6 (1.5E+6 to 3.0E+6) cells/mL in Recovery Cell Culture Freezing Medium (Gibco, 12648-010) and stored at −180° C. in suitable aliquots until use.
The assay buffer consisted of DMEM without phenol red (Gibco, 11880-028) supplemented with 1× GlutaMAX (Gibco, 35050-038), 10 mM HEPES (Gibco, 15630-056), 1% (w/v) ovalbumin (Sigma, A5503) and 0.1% (v/v) Pluronic F-68 (Gibco, 24040-032) either with HSA or without HSA (Sigma, A9511).
Serial dilutions were transferred to a 384-well assay plate (PerkinElmer/Revvity, 6007688) and mixed with an equal volume (10 μL) of assay buffer without or with 3% HSA (Sigma, A-9511). Frozen stocks of hGIPR BHK Cre-Luc cells were thawed in a 37° C. water bath, washed once in PBS (Gibco 14190-094), diluted to 1.5×10^5 (1.5E+5) cells/mL in assay buffer (without HSA) and added (10 μL) to each well of the 384-well assay plate. After a short centrifugation, the assay plates were incubated for 3 hours at 37° C. in 5% CO2 and let to equilibrated at room temperature for 10 minutes before the addition of 30 μL steadylite Plus™ (PerkinElmer/Revvity, 6066759) per well. Plates were sealed and incubated at room temperature with gentle shaking for 30 minutes while protected from light. Luminescence was detected on a luminescence plate reader e.g. a Synergy 2 (BioTek).

Data set [4] relates to Male Sprague Dawley (SD) rats. The experiment in a line: Efficacy testing on appetite: acute food intake in ad libitum fed normal weight rats. It counts as in vivo, rat. The conditions noted are these: single dose 10 nmol/kg. In short, it runs like this: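 Ad libitum-fed male SD rats on a reversed light cycle received one s.c. dose (10 or 30 nmol/kg; 0.5 ml/kg of 8 mM phosphate, 250 mM glycerol, 0.007% polysorbate 20, pH 7.4) just before dark onset. Individual food intake was logged continuously for 0–72 h by an automated weighing system.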

Consider “Y[Aib]EGTFTSDYSILLEEQAAREFIEWLLAGGPSSGAGQAPGQAPGASHLSTAQTQRLSAELHK([AEEA-AEEA-γGlu-C20 diacid])LATLPRTETGSGSP-NH2 [Compound 115]”, for which, in data set [1], the “Purity loss per week at 37° C.” value stood at 1.1%. For the same substance, the half-life in data set [2] was 4.79 days. The half-maximal effective concentration (EC50) was 0.0389 nM in data set [3] (hGIPR Potency, 1% HSA, EC50, methods B, in the presence of 1% HSA) and 0.0103 nM in data set [3] (method B, absence of HSA, read-out: hGIPR Potency, no HSA, EC50). In addition, the “Food intake (relative to vehicle) Day 1” value in data set [4] (day 1 [0-24 hours]) is −44.5%. Besides, in data set [4] (day 2 [24-48 hours]), the “Food intake (relative to vehicle) Day 2” value is given as −76.5%. Moreover, the “Food intake (relative to vehicle) Day 3” value in data set [4] (day 3 [48-72 hours]) is −38%.

Usually EC50 stands for the concentration that produces a half-maximal response.
